Test [1] has as its system Aspergillus flavus. The experiment in a line: Antifungal activity against Aspergillus flavus at 10 ug/ml by agar plate method. The format is functional.
Test [2] deals with Aspergillus niger. The experiment in a line: Antifungal activity against Aspergillus niger at 10 ug/ml by agar plate method. The format is functional.
Test [3] has as its system Aspergillus flavus. Put plainly: Antifungal activity against Aspergillus flavus at 100 ug/ml by agar plate method. The format is functional.
For test [4], the system named is Aspergillus flavus. The experiment in a line: Antifungal activity against Aspergillus flavus at 50 ug/ml by agar plate method. The format is functional.
Test [5] concerns Aspergillus niger. Put plainly: Antifungal activity against Aspergillus niger at 100 ug/ml by agar plate method. The format is functional.
In test [6] the test system is Staphylococcus aureus. The experiment in a line: Antibacterial activity against Staphylococcus aureus by disk diffusion method. The format is functional.
Test [7] relates to MCF7. Put plainly: Cytotoxicity against human MCF7 cells assessed as decrease in number of cells relative to control. The format is functional, cell-based.
In test [8] the test system is Aspergillus niger. Put plainly: Antifungal activity against Aspergillus niger at 50 ug/ml by agar plate method. The format is functional.
Test [9] has as its system Klebsiella pneumoniae. Put plainly: Antibacterial activity against Klebsiella pneumoniae by disk diffusion method. The format is functional.
Test [10] concerns Pseudomonas aeruginosa. The experiment in a line: Antibacterial activity against Pseudomonas aeruginosa by disk diffusion method. The format is functional.
Test [11] has as its system Aspergillus flavus. Put plainly: Antifungal activity against Aspergillus flavus at 20 ug/ml by agar plate method. The format is functional.
Test [12] relates to MCF7. Put plainly: Cytotoxicity against human MCF7 cells. The format is functional, cell-based.
Test [13] relates to Aspergillus niger. The experiment in a line: Antifungal activity against Aspergillus niger at 20 ug/ml by agar plate method. The format is functional.

Turning to `O=C1Nc2cc3c(-c4ccccc4)c(-c4ccccc4)n(-c4ccccc4)c(=O)c3cc2C(c2ccccc2)N1` (centres undefined), the inhibition at 10 µg/mL in test [1] was 53.3%; in test [2] it was 60%. Moreover, the figures for the inhibition at 100 µg/mL in [3] and in [5] were 86.7% and 95%, respectively. In addition, the inhibition at 50 µg/mL is 73.3% in test [4] and 90% in test [8]. In addition, the “inhibition zone (IZ)” value in test [6] is given as over 14 mm; in test [9], 6 mm; in test [10], 10 mm. In addition, the Activity entry in test [7] was “Toxic”. Also, the inhibition at 20 µg/mL in test [11] is 60%; in [13] it was 75%. The compound further gave a half-inhibitory concentration (IC50) in test [12] of 4.4 µM.
As to `O=C1NCc2cc3c(=O)n(-c4ccccc4)c(-c4ccccc4)c(-c4ccccc4)c3cc2N1`, the inhibition at 10 µg/mL in test [1] and in [2] was at most 25% each time. For the same compound, the inhibition at 100 µg/mL in test [3] and in test [5] was at most 25% each time. Also, the inhibition at 50 µg/mL in test [4] and in [8] was at most 25% each time. Besides, the “inhibition zone (IZ)” value in test [6], in test [9] and in test [10] was 6 mm throughout. Further, the inhibition at 20 µg/mL in [11] and in test [13] was at most 25% throughout. The same compound registered an IC50 in [12] of 8.5 µM.
`COc1ccc(-n2c(-c3ccccc3)c(-c3ccccc3)c3cc4c(cc3c2=O)C(c2ccccc2)NC(=O)N4)cc1` (centres undefined): the inhibition at 10 µg/mL in [1] and in test [2] was at most 25% throughout. Moreover, the inhibition at 100 µg/mL in test [3] and in test [5] was at most 25% throughout. Also, the inhibition at 50 µg/mL in test [4] and in [8] was at most 25% in each case. The “inhibition zone (IZ)” value in test [6], in [9] and in test [10] was 6 mm throughout. The Activity result in test [7] is “Not toxic”. Further, the inhibition at 20 µg/mL in test [11] and in [13] was at most 25% each time. For the same compound, inhibition in test [12] was half-maximal at 11.4 µM (IC50).
Consider `O=C1NCc2cc3c(=O)n(-c4ccc(Cl)cc4)c(-c4ccccc4)c(-c4ccccc4)c3cc2N1`, for which the inhibition at 10 µg/mL in [1] and in test [2] was at most 25% each time. Besides, the inhibition at 100 µg/mL in test [3] and in [5] was at most 25% in each case. Further, the inhibition at 50 µg/mL in test [4] and in [8] was at most 25% in each case. The “inhibition zone (IZ)” value in [6], in test [9] and in test [10] was 6 mm each time. Besides, the Activity result in [7] was “Not toxic”. Further, the inhibition at 20 µg/mL in test [11] and in test [13] was at most 25% each time. Besides, half-maximal inhibition in test [12] (IC50) required 3.7 µM.
As for `O=C1Nc2cc3c(-c4ccccc4)c(-c4ccccc4)n(-c4ccc(Cl)cc4)c(=O)c3cc2C(c2ccccc2)N1` (centres undefined), the inhibition at 10 µg/mL in [1] was 60%; in test [2], 50%. The inhibition at 100 µg/mL in test [3] worked out at 93.3%; in [5], 90%. The values for the inhibition at 50 µg/mL in [4] and in [8] were 83.3% and 80%, respectively. The “inhibition zone (IZ)” value in test [6], in test [9] and in [10] was 10 mm in each case. Moreover, the Activity result in test [7] was “Toxic”. The inhibition at 20 µg/mL in test [11] is 76.7%; in [13] it was 70%. In addition, 25.6 µM corresponded to half-maximal inhibition in test [12] (IC50).

These data come from ChEMBL document CHEMBL1146901, “Synthesis and pharmacological study of novel pyrido-quinazolone analogues as anti-fungal, antibacterial, and anticancer agents” (Bioorg Med Chem Lett, 2006).
